Data published in patent publication US20260306459A1, “INHIBITORS OF NSUN1- AND NSUN2-MEDIATED ACTIVE STRUCTURES” (THE UNIVERSITY OF CHICAGO, priority 2023, published 2026).
“Also recorded” adds a separate entry of the source.

Assays:
[1] = test system: BRD4-NSUN1 interaction; details: azacitidine-resistant M2AR cells; Cheng 2018; cited from earlier work
[2] = test system: BRD4-eRNAPII (CTD-S2P) interaction; details: azacitidine-resistant M2AR cells; Cheng 2018; cited from earlier work
[3] = test system: leukemia and lung cancer cell lines; test: Functional (MTT) screening of NSUN1/2-targeting libraries in leukemia and lung cancer cell lines; type: cell-based, human; details: multiple leukemia lines and/or lung cancer cell lines
Experimental: (§1) FIGS. 11A-11D display scatter plot representations of screening results for AI-designed NSUN1-targeting compound libraries in a venetcoclax-resistant human myeloid leukemia cell line (SC), lung cancer cell line (H82), and venetoclax resistant human […], and a schematic representation of categorization of the results. A human myeloid leukemia cell Line (SC), a lung cancer cell line (H82 or K562) were both incubated at drug concentration 10 μM/μL overnight. MTT assays were performed after 24 hours, and changes were calculated as the percentage of mean absorbance (n=3) versus mean absorbance of drug-free control (n=3). Negative outliers indicated in red ovals. FIG. 11A depicts the results of an NSUN1-targeting drug library, 74 drugs, comparing growth/inhibition in H-82 (Y axis) and SC (X axis) cell lines. FIG. 11B depicts the results of an NSUN2-targeting drug library, 102 drugs, comparing growth/inhibition in H-82 (Y axis) and SC (X axis) cell lines. FIG. 11C depicts the results of an NSUN1-targeting drug library, 74 drugs, comparing growth/inhibition in K562 (Y axis) and SC (X axis) cell lines. FIG. 11D is a schematic representation showing categorization of the results from screens performed as described in FIG. 11, and validation experiments as described in FIG. 12.
(§2) FIGS. 12A-12J display bar graphs displaying the results of validation experiments for small molecule inhibitors of NSUN1/2-ACS interactions as identified herein. Drug validation of select SC, H82, and/or K562 inhibiting compounds in mouse acute myeloid leukemia cell Line (C1498), SC cells, H82 cells, and/or K562 cells. NSUN1-17 and/or venetoclax acted as controls. Inhibition of cell vitality was identified as dose-dependent for certain small molecules, not merely cytotoxic. In brief, stock with concentration 0.4×10^6 test (e.g., SC, H82, K562, or C1498, as labelled) cells/mL, and 10 μM/μL drug was serially diluted into drug-free cell stock to reach concentrations of 1 μM/μL and […] and split into 100 μL volumes in a 96-well plate. MTT assays performed after 24 hour incubation. Percentages calculated as a difference in mean absorbance of each drug triplicate and mean absorbance in drug-free cell triplicate. Red bars represent standard errors. The concentration of drug represented by each column is from left to right as written in the figure keys. FIGS. 12A-12E provide results from independent repeats for different groupings of small molecules tested against C1498 cells. FIGS. 12F-12G provide results from independent repeats for different groupings of small molecules tested against H82 cells. FIGS. […] provide results from independent repeats for different groupings of small molecules tested against SC cells. FIG. 12J provide results from an assay against K562 cells.
The inventors then designed a protocol for functional screening of NSUN1/2-targeting supercomputing/AI-derived compound libraries as schematically presented in FIGS. 5A-5G. Briefly, the library compounds were obtained from various chemical companies/vendors and dissolved in DMSO, and then applied to 96-well plates that contained leukemia and/or other cancer cells that were resistant to venetoclax. Both the routine colorimetric assay (MTT assay) and the newly developed NSUN1/2-targeting fluorescence quenching and release (FQR) assay were performed to select bioactive compounds for further quantitative study to confirm that they targetNSUN1/2 and their associated ACS. As described below, the compound libraries screened through cancer cell proliferation and/or NSUN1/2 localization to the ACS successfully identified numerous promising compounds that can inhibit the leukemia cell growth and appear to target the NSUN1-mediated ACS (see Table 2). This success has proven the feasibility and efficacy of the described supercomputing/AI design and functional screening of the NSUN1/2-targeting drug libraries. In some aspects, screening is conducted using drug-resistant cell lines. […]

[4] = biological target: T1, NSUN2-RNA polymerase II (RNAPII) interaction (Homo sapiens, UniProt Q08J23); test: PL-RCA-FCM, NSUN2-RNAPII interaction; type: cell-based
T1 construct: RNAPII CTD2-S2P
Text: (§3) Black=negative control, blue=positive control, no drug=red.
The PL-RCA-CM/imaging technique utilized in the inventors previous work (Cheng, J. X. et al., Nature Communications 2018) was suitable to visualize and semi-quantify the NSUN1/2-mediated ACS in cells. However, the previous technique had the disadvantage of having a low sensitivity and low throughput. To overcome this bottleneck, as described herein, the inventors developed NSUN1/2-targeting fluorescence quenching and release (FQR) plate assay (FIG. 6A) and PL-RCA flow cytometry (PL-RCA-FCM) technology (FIG. 6B) for screening of NSUN1/2-targeting drug libraries and quantitatively measuring NSUN1/2-mediated ACS with and without drugs in a lineage-specific and high-throughput manner. The new PL-RCA-FCM detected very strong PL-RCA signals (>2 logs) of the NSUN2-mediated interactions with m5C, RNAPII CTD2-S2P and BRD4, particularly in the venetoclax-resistant leukemia cells (SC) (FIG. 6C), in comparison to the venetoclax-sensitive K1 cells (FIG. 6D).

[5] = test system: NSUN1 and NSUN2 binding modules; test: Synergy experiments; details: besides the NSUN1 A-460 binding module
Text: Without being limited by theory, this may potentially be why NSUN1-17 is effective in multiple different cancer types.

[6] = test system: SC cells; test: MTT growth inhibition in venetoclax-resistant monocytic leukemia cell line SC; type: cell-based, human
Text: (§4) FIGS. 8A-8B display a schematic of an 5-ethynyl uridine click chemistry (EC)-coupled flow cytometry (EC-FCM) assay (FIG. 8A), while FIG. 8B depicts the results of an EC-FCM assay showing distinct drug-specific signatures/patterns of nascent RNA synthesis inhibition in the venetoclax sensitive leukemia cell line (K1). The MTT assay measures cell viability and proliferation as well as cytotoxicity of compounds by assessing cellular metabolic activity. The associated measurement can be described as cell viability, cell killing, and/or growth inhibition.
as §1, §2
The inventors then designed a protocol for functional screening of NSUN1/2-targeting supercomputing/AI-derived compound libraries as schematically presented in FIGS. 5A-5G. Briefly, the library compounds were obtained from various chemical companies/vendors and dissolved in DMSO, and then applied to 96-well plates that contained leukemia and/or other cancer cells that were resistant to venetoclax. […]

[7] = biological target: T2, NSUN1-eRNAPII interaction (Homo sapiens, UniProt P46087); test: PL-RCA-FCM, NSUN1-eRNAPII interaction; type: cell-based
T2 construct: RNAPII
Text: (§5) FIGS. 5A-5G display a pipeline of computational design and functional screening of small-molecule compound libraries as well as exemplary characterization and validation of identified positive hit compounds and their targets. FIGS. 5A-5D display an exemplary experimental procedure, beginning with characterization of NSUN1 and/or NSUN2 putative binding modules for interaction with ACS components (FIGS. 5A-5B), a graphic displaying the design of a small molecule library and testing of the putative small molecule NSUN1/2-ACS inhibitors in cell lines (FIG. 5C), characterization of the NSUN1/2-ACS inhibitors interactions with the ACS machinery (FIG. 5D).
as §3
(§6) The PL-RCA-CM/imaging technique utilized in the inventors previous work (Cheng, J. X. et al., Nature Communications 2018) was suitable to visualize and semi-quantify the NSUN1/2-mediated ACS in cells. […] To overcome this bottleneck, as described herein, the inventors developed NSUN1/2-targeting fluorescence quenching and release (FQR) plate assay (FIG. 6A) and PL-RCA flow cytometry (PL-RCA-FCM) technology (FIG. 6B) for screening of NSUN1/2-targeting drug libraries and quantitatively measuring NSUN1/2-mediated ACS with and without drugs in a lineage-specific and high-throughput manner. […]

[8] = biological target: NSUN1-c-MYC interaction (Homo sapiens, UniProt P46087); test: PL-RCA-FCM, NSUN1-c-MYC interaction; type: cell-based
Text: as §5, §3, §6

[9] = biological target: NSUN1-RNA:m5C interaction (Homo sapiens, UniProt P46087); test: PL-RCA-FCM, NSUN1-RNA:m5C interaction; type: cell-based
Text: as §5
The PL-RCA-CM/imaging technique utilized in the inventors previous work (Cheng, J. X. et al., Nature Communications 2018) was suitable to visualize and semi-quantify the NSUN1/2-mediated ACS in cells. However, the previous technique had the disadvantage of having a low sensitivity and low throughput. To overcome this bottleneck, as described herein, the inventors developed NSUN1/2-targeting fluorescence quenching and release (FQR) plate assay (FIG. 6A) and PL-RCA flow cytometry (PL-RCA-FCM) technology (FIG. 6B) for screening of NSUN1/2-targeting drug libraries and quantitatively measuring NSUN1/2-mediated ACS with and without drugs in a lineage-specific and high-throughput manner. […]

[10] = test system: eRNAPII (CTD-S2P)-NSUN1 interaction; details: Cheng 2018; cited from earlier work
[11] = test system: eRNAPII (CTD-S2P)-DNMT2 interaction; details: Cheng 2018; cited from earlier work
[12] = test system: SCAR cells; details: low concentrations of 5-AZA, NSUN1 siRNA; Cheng 2018; cited from earlier work
[13] = test system: eRNAPII (CTD-S2P)-CTD-S5P interaction; details: Cheng 2018; cited from earlier work
[14] = test system: eRNAPII (CTD-S2P)-NSUN3 interaction; details: Cheng 2018; cited from earlier work
[15] = test system: K1VR cells; test: Venetoclax sensitivity of K1VR cells after NSUN1/NSUN2 knockdown; type: cell-based; details: knockdown of either NSUN1 or NSUN2
[16] = test system: Kasumi-1 (K1) cells; test: Venetoclax sensitivity of Kasumi-1 cells; type: cell-based
[17] = test system: C1498 cells; test: MTT growth inhibition in myeloid leukemia cell line C1498; type: cell-based, mouse; details: mouse AML cell line
Text: as §4, §2
The inventors then designed a protocol for functional screening of NSUN1/2-targeting supercomputing/AI-derived compound libraries as schematically presented in FIGS. 5A-5G. Briefly, the library compounds were obtained from various chemical companies/vendors and dissolved in DMSO, and then applied to 96-well plates that contained leukemia and/or other cancer cells that were resistant to venetoclax. Both the routine colorimetric assay (MTT assay) and the newly developed NSUN1/2-targeting fluorescence quenching and release (FQR) assay were performed to select bioactive compounds for further quantitative study to confirm that they targetNSUN1/2 and their associated ACS. As described below, the compound libraries screened through cancer cell proliferation and/or NSUN1/2 localization to the ACS successfully identified numerous promising compounds that can inhibit the leukemia cell growth and appear to target the NSUN1-mediated ACS (see Table 2). This success has proven the feasibility and efficacy of the described supercomputing/AI design and functional screening of the NSUN1/2-targeting drug libraries. In some aspects, screening is conducted using drug-resistant cell lines. In some aspects, screening is conducted using drug-sensitive cell lines. In some aspects, screening is conducted in leukemia cell lines. In some aspects, screening is conducted in other cancer cell lines besides leukemia (e.g., lung cancer cell lines). In some aspects, NSUN1/2-ACS inhibitors identified are verified in additional cell lines and/or animal models (see e.g., Tables 4-6).

[18] = test system: CCRF-CEM cells; test: Venetoclax sensitivity of CCRF-CEM cells; type: cell-based
[19] = test system: MDS/AML; details: cited from earlier work
[20] = test system: H82 cells; test: MTT growth inhibition in venetoclax-resistant lung cancer cell line H82; type: cell-based, human; details: human lung cancer cell line NCI-H82
Text: as §4, §1
FIGS. 12A-12J display bar graphs displaying the results of validation experiments for small molecule inhibitors of NSUN1/2-ACS interactions as identified herein. Drug validation of select SC, H82, and/or K562 inhibiting compounds in mouse acute myeloid leukemia cell Line (C1498), SC cells, H82 cells, and/or K562 cells. NSUN1-17 and/or venetoclax acted as controls. Inhibition of cell vitality was identified as dose-dependent for certain small molecules, not merely cytotoxic. In brief, stock with concentration 0.4×10^6 test (e.g., SC, H82, K562, or C1498, as labelled) cells/mL, and 10 μM/μL drug was serially diluted into drug-free cell stock to reach concentrations of 1 μM/μL and […] and split into 100 μL volumes in a 96-well plate. MTT assays performed after 24 hour incubation. Percentages calculated as a difference in mean absorbance of each drug triplicate and mean absorbance in drug-free cell triplicate. […]

T2 sequence (P46087 whole entry): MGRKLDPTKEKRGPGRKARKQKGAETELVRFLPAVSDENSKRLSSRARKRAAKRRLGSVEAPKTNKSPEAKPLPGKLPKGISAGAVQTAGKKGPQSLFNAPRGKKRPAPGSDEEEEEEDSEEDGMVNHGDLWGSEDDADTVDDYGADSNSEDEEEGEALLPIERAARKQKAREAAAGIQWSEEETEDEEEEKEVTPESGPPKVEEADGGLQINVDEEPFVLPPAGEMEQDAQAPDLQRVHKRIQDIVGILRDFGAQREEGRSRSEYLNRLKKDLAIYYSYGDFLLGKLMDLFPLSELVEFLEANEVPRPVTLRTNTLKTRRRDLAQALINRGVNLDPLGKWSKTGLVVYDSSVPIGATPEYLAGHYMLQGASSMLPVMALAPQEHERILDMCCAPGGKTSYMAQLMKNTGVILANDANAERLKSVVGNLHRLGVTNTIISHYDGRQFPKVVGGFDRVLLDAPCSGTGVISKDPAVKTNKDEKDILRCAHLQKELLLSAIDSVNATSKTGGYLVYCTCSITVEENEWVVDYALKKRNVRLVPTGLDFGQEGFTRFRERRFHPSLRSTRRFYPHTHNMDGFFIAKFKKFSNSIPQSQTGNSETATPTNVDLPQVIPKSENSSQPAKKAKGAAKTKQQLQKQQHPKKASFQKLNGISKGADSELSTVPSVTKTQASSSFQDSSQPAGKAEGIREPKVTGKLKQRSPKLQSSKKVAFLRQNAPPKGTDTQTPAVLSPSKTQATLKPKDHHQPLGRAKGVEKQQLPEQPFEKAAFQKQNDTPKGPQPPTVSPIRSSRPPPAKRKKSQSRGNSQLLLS
Sequence of NSUN1-c-MYC interaction (P46087 whole entry): as above
Sequence of NSUN1-RNA:m5C interaction (P46087 whole entry): as above
T1 sequence (Q08J23 whole entry): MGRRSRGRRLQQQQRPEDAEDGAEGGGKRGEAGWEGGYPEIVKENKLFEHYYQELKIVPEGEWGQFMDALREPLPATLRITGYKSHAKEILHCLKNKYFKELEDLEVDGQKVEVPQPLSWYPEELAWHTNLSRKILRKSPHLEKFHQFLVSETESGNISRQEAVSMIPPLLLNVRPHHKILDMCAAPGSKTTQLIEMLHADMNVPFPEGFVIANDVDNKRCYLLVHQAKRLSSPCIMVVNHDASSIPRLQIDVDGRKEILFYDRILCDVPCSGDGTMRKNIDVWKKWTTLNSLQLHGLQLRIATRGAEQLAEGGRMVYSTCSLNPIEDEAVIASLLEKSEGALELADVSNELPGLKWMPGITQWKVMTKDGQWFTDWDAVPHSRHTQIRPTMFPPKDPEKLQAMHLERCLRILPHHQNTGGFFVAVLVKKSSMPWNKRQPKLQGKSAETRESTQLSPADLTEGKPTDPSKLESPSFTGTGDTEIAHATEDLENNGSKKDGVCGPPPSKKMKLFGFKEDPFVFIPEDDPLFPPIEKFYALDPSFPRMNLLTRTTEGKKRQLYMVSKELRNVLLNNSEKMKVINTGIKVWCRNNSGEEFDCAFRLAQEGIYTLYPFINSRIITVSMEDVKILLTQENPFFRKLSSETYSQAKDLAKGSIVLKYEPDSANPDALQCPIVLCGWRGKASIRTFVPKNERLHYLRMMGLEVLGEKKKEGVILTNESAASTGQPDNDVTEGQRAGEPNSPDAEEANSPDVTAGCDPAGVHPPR

## Cc1sc2c(c1C)C(c1ccc(Cl)cc1)=N[C@@H](CC(=O)OC(C)(C)C)c1nnc(C)n1-2 [JQ1]
[1]
  Sensitivity of BRD4-NSUN1 interaction: insensitive
[2]
  Sensitivity of BRD4-eRNAPII (CTD-S2P) interaction: insensitive

## Cc1[nH]nc2ccc(-c3cncc(OC[C@@H](N)Cc4c[nH]c5ccccc45)c3)cc12 [NSUN1-17]
[3]
  Efficacy of tumor cell growth inhibition: high-efficacy of tumor cell growth inhibition
[4]
  Effect on NSUN2-mediated interaction with RNA polymerase II: not the NSUN-2 mediated interaction
[5]
  Binding modules targeted, from synergy experiments: likely to target multiple binding modules in both NSUN1 and NSUN2
[6]
  Inhibition of growth of venetoclax-resistant leukemia (SC) cells: inhibition of the growth of venetoclax-resistant SC cells; also recorded: inhibit drug (venetoclax)-resistant leukemia cells
[7]
  Effect on NSUN1 interaction with eRNAPII/RNAPII: inhibited the interaction; also recorded: can only disrupt the NSUN1-mediated interaction; also recorded: effectively disrupted
[8]
  Effect on NSUN1 interaction with c-MYC: inhibited the interaction; also recorded: can only disrupt the NSUN1-mediated interaction; also recorded: effectively disrupted
[9]
  Effect on NSUN1 interaction with RNA:m5C: but not the interaction between NSUN1 and RNA m5C; also recorded: little effects

## Nc1ncn([C@@H]2O[C@H](CO)[C@@H](O)[C@H]2O)c(=O)n1 [5-AZA, 5-azacytidine]
[10]
  Sensitivity of eRNAPII (CTD-S2P)-NSUN1 interaction: resistant
[11]
  Sensitivity of eRNAPII (CTD-S2P)-DNMT2 interaction: highly sensitive
[12]
  Response of 5-AZA-resistant SCAR cells after NSUN1 knockdown: re-sensitized
[13]
  Sensitivity of eRNAPII (CTD-S2P)-CTD-S5P interaction: resistant
[14]
  Sensitivity of eRNAPII (CTD-S2P)-NSUN3 interaction: highly sensitive

## CC1(C)CCC(CN2CCN(c3ccc(C(=O)NS(=O)(=O)c4ccc(NCC5CCOCC5)c([N+](=O)[O-])c4)c(Oc4cnc5[nH]ccc5c4)c3)CC2)=C(c2ccc(Cl)cc2)C1 [venetoclax, Venetoclax]
[15]
  Sensitivity of K1VR cells after NSUN1 or NSUN2 siRNA knockdown: re-sensitize
[16]
  Sensitivity/resistance of Kasumi-1 cells: sensitive
[17]
  Sensitivity/resistance of C1498 cells: moderate to high resistance
[18]
  Sensitivity/resistance of CCRF-CEM cells: sensitive
[19]; AML patients, venetoclax-based therapy, acquired resistance
  AML patients developing venetoclax acquired resistance: > 60%
[19]; MDS/AML, primary resistance
  MDS/AML with primary venetoclax resistance: 30-40%
[20]
  Sensitivity/resistance of NCI-H82 cells: resistant
[6]; monocytic leukemia line SC
  Sensitivity/resistance of SC cells: highly resistant
